{"source": "paper PMC8800111", "about": "(The Journal of Biological Chemistry, 2021)", "assay_type_in_all_cases": "cell-based", "key": {"[1]": {"target": "proteins of U3A human fibrosarcoma cells (4462 proteins detected) (Homo sapiens, UniProt Q75QN2)", "details": "protein INTS8; U3A cells"}, "[2]": {"target": "proteins of U3A human fibrosarcoma cells (4462 proteins detected) (Homo sapiens, UniProt Q00765)", "details": "protein REEP5; U3A cells"}, "[3]": {"target": "proteins of U3A human fibrosarcoma cells (4462 proteins detected) (Homo sapiens, UniProt O15042)", "details": "protein U2SURP; U3A cells"}, "[4]": {"target": "proteins of U3A human fibrosarcoma cells (4462 proteins detected) (Homo sapiens, UniProt Q9BY89)", "details": "protein KIAA1671, U3A cells"}, "[5]": {"target": "proteins of U3A human fibrosarcoma cells (4462 proteins detected) (Homo sapiens, UniProt O95292)", "sequence (O95292 whole entry)": "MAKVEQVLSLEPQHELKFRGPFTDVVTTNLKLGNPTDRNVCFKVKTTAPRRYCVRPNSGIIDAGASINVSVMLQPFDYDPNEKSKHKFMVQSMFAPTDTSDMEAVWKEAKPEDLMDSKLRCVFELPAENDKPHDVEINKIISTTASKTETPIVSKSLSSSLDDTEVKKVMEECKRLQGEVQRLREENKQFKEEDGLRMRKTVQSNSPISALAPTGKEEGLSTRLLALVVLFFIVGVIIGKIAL", "details": "protein VAPB; U3A cells"}, "[6]": {"target": "proteins of U3A human fibrosarcoma cells (4462 proteins detected) (Homo sapiens, UniProt O00505)", "sequence (O00505 whole entry)": "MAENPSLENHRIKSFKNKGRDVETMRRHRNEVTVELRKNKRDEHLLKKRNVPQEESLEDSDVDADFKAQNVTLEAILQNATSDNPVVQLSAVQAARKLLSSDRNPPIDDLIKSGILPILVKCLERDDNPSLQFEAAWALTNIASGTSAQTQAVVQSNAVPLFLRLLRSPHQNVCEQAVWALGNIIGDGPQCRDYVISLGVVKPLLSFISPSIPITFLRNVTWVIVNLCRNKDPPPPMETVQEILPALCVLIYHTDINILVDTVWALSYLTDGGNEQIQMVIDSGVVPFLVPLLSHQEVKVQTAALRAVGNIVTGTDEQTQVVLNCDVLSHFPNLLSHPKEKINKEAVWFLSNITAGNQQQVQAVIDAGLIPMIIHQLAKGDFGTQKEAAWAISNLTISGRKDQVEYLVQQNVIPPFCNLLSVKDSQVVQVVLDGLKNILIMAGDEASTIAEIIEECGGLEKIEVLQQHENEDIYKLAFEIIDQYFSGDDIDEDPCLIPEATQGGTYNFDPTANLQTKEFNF", "details": "protein KPNA3; U3A cells"}, "[7]": {"target": "proteins of U3A human fibrosarcoma cells (4462 proteins detected) (Homo sapiens, UniProt P17813)", "details": "protein ENG; U3A cells"}, "[8]": {"target": "proteins of U3A human fibrosarcoma cells (4462 proteins detected) (Homo sapiens, UniProt P35790)", "details": "protein CHKA; U3A, 10 μM, 2 h"}, "[9]": {"target": "proteins of U3A human fibrosarcoma cells (4462 proteins detected) (Homo sapiens, UniProt Q13303)", "details": "protein KCNAB2, U3A cells"}, "[10]": {"target": "proteins of U3A human fibrosarcoma cells (4462 proteins detected) (Homo sapiens, UniProt O75170)", "sequence (O75170 whole entry)": "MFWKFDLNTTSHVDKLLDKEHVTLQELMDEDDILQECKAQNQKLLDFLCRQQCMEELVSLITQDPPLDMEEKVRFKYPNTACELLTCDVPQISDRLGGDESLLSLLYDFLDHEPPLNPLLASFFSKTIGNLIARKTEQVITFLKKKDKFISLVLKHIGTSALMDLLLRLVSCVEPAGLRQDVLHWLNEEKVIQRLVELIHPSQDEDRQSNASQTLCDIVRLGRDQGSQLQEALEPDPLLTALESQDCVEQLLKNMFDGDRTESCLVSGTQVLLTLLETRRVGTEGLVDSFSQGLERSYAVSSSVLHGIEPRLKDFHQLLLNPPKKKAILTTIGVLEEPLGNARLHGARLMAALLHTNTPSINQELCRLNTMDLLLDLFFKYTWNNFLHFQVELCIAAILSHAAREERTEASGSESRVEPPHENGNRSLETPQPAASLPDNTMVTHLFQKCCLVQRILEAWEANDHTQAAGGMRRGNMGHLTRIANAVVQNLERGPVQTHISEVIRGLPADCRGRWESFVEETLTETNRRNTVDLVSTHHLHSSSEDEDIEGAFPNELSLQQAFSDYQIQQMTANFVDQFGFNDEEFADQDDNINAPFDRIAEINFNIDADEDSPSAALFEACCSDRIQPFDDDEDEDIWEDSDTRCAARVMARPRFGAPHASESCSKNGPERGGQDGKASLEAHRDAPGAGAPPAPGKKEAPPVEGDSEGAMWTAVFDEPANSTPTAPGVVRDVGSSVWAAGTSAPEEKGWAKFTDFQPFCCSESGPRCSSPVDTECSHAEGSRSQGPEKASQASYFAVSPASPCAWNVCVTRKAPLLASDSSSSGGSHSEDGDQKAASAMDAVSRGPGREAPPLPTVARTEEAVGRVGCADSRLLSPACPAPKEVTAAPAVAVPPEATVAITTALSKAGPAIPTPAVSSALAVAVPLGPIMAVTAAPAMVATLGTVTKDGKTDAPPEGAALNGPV", "details": "protein PPP6R2; soluble abundance after heat, U3A cells"}, "[11]": {"target": "proteins of U3A human fibrosarcoma cells (4462 proteins detected) (Homo sapiens, UniProt O95671)", "details": "protein ASMTL; U3A, 10 μM, 2 h"}, "[12]": {"target": "proteins of U3A human fibrosarcoma cells (4462 proteins detected) (Homo sapiens, UniProt P07948)", "sequence (P07948 whole entry)": "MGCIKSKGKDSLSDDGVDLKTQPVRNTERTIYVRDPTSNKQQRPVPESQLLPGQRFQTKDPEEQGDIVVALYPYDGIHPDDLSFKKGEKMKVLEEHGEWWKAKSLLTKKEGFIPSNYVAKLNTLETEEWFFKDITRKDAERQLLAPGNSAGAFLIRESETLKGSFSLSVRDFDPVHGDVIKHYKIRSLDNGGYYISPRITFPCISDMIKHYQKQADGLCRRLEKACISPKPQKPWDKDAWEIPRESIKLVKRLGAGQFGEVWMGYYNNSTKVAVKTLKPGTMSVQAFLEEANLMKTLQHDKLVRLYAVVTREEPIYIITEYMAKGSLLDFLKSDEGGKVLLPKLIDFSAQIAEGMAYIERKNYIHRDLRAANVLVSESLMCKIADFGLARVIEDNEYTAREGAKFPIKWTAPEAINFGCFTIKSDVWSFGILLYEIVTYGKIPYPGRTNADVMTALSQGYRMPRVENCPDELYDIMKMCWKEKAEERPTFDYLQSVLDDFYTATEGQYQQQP", "details": "protein LYN; U3A cells"}, "[13]": {"target": "proteins of U3A human fibrosarcoma cells (4462 proteins detected) (Homo sapiens, UniProt Q9H3P7)", "sequence (Q9H3P7 whole entry)": "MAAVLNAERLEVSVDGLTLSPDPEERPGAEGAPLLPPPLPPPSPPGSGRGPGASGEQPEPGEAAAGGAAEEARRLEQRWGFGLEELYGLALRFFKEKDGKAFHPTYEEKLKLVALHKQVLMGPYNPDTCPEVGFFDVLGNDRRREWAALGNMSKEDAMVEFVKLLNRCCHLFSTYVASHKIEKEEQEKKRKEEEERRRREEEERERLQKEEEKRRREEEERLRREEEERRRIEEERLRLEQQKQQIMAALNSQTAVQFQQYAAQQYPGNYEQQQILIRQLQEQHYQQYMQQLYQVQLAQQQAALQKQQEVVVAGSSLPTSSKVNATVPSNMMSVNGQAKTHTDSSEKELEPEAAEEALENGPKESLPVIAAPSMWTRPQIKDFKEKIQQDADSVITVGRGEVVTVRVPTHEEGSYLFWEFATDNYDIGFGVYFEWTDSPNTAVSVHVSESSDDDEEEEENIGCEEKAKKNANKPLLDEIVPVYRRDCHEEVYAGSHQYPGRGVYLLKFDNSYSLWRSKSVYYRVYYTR", "details": "protein ACBD3; U3A, 10 μM, 2 h"}, "[14]": {"target": "proteins of U3A human fibrosarcoma cells (4462 proteins detected) (Homo sapiens, UniProt Q99873)", "details": "protein PRMT1, U3A cells"}, "[15]": {"target": "proteins of U3A human fibrosarcoma cells (4462 proteins detected) (Homo sapiens, UniProt P29992)", "sequence (P29992 whole entry)": "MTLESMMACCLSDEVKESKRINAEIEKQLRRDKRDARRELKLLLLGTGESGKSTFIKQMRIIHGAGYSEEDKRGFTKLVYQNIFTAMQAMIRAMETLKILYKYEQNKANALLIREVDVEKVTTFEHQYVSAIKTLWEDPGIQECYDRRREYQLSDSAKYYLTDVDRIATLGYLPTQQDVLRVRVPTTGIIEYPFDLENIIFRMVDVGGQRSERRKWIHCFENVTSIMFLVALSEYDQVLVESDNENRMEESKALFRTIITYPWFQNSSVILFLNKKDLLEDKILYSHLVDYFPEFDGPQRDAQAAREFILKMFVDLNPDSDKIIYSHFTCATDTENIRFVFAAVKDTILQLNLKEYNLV", "details": "protein GNA11; U3A cells"}, "[16]": {"target": "proteins of U3A human fibrosarcoma cells (4462 proteins detected) (Homo sapiens, UniProt O95983)", "sequence (O95983 whole entry)": "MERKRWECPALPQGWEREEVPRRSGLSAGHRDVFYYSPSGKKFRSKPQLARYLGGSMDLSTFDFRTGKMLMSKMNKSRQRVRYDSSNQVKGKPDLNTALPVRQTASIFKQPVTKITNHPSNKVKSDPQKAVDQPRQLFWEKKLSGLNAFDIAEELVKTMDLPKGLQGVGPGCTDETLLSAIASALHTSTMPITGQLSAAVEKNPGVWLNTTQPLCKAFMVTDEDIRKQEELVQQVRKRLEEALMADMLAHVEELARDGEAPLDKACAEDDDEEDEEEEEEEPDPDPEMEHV", "details": "protein MBD3; U3A cells"}, "[17]": {"target": "proteins of U3A human fibrosarcoma cells (4462 proteins detected) (Homo sapiens, UniProt P30086)", "sequence (P30086 whole entry)": "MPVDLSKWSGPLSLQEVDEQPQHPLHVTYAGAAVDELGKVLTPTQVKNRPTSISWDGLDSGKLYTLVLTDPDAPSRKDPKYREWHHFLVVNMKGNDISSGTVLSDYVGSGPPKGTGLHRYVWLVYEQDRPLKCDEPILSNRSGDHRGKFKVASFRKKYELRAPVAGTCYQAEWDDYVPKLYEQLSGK", "details": "protein PEBP1, U3A cells"}, "[18]": {"target": "proteins of U3A human fibrosarcoma cells (4462 proteins detected) (Homo sapiens, UniProt Q9Y399)", "details": "protein MRPS2; U3A, 10 μM, 2 h"}, "[19]": {"target": "proteins of U3A human fibrosarcoma cells (4462 proteins detected) (Homo sapiens, UniProt Q8NBJ4)", "details": "protein GOLM1; U3A, 10 μM, 2 h"}, "[20]": {"target": "proteins of U3A human fibrosarcoma cells (4462 proteins detected) (Homo sapiens, UniProt Q8N9T8)", "details": "protein KRI1; soluble abundance after heat, U3A cells"}, "[21]": {"target": "proteins of U3A human fibrosarcoma cells (4462 proteins detected) (Homo sapiens, UniProt Q5PSV4)", "details": "protein BRMS1L, U3A cells"}, "[22]": {"target": "proteins of U3A human fibrosarcoma cells (4462 proteins detected) (Homo sapiens, UniProt P51659)", "details": "protein HSD17B4; U3A cells"}, "[23]": {"target": "proteins of U3A human fibrosarcoma cells (4462 proteins detected) (Homo sapiens, UniProt O75396)", "details": "protein SEC22B; U3A cells"}, "[24]": {"target": "proteins of U3A human fibrosarcoma cells (4462 proteins detected) (Homo sapiens, UniProt Q13162)", "sequence (Q13162 38-271)": "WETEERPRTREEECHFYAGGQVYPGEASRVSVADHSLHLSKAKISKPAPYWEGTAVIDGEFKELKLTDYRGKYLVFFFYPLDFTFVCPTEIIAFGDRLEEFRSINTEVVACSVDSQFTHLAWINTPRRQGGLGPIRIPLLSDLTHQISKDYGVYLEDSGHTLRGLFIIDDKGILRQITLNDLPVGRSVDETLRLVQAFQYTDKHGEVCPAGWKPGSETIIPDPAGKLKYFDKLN", "details": "protein PRDX4; U3A cells"}, "[25]": {"target": "proteins of U3A human fibrosarcoma cells (4462 proteins detected) (Homo sapiens, UniProt O14965)", "sequence (O14965 whole entry)": "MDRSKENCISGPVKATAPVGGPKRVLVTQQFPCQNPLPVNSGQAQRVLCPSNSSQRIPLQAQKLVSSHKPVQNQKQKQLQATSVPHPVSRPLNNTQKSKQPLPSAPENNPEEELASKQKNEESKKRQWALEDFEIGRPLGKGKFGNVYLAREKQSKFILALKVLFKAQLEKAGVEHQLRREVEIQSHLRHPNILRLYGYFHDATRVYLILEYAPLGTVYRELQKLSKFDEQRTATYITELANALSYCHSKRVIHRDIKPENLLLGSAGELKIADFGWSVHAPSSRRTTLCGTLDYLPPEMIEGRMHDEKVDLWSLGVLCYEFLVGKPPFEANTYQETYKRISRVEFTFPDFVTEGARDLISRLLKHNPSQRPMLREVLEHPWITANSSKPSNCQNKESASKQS", "details": "protein AURKA; soluble abundance after heat, U3A cells"}, "[26]": {"target": "proteins of U3A human fibrosarcoma cells (4462 proteins detected) (Homo sapiens, UniProt Q8IXJ6)", "sequence (Q8IXJ6 whole entry)": "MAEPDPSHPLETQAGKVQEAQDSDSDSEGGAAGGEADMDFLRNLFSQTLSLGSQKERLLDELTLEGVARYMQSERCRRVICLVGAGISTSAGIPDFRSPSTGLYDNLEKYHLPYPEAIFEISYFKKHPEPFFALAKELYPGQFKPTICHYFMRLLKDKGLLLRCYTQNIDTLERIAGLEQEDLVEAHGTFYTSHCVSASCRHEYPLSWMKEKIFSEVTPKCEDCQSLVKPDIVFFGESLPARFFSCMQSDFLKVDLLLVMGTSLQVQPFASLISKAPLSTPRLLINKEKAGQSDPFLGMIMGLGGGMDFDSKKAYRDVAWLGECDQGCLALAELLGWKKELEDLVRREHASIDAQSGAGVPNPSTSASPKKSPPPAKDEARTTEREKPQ", "details": "protein SIRT2; U3A cells"}, "[27]": {"target": "proteins of U3A human fibrosarcoma cells (4462 proteins detected) (Homo sapiens, UniProt O60573)", "details": "protein EIF4E2; soluble abundance after heat, U3A cells"}, "[28]": {"target": "proteins of U3A human fibrosarcoma cells (4462 proteins detected) (Homo sapiens, UniProt Q9GZV4)", "sequence (Q9GZV4 whole entry)": "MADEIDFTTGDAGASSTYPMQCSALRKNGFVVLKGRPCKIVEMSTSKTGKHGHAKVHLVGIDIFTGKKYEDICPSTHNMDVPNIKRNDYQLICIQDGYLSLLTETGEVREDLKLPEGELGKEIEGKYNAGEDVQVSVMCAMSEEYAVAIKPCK", "details": "protein EIF5A2; U3A, 10 μM, 2 h"}, "[29]": {"target": "proteins of U3A human fibrosarcoma cells (4462 proteins detected) (Homo sapiens, UniProt Q9UJU6)", "details": "protein DBNL, U3A cells"}, "[30]": {"target": "proteins of U3A human fibrosarcoma cells (4462 proteins detected) (Homo sapiens, UniProt P30050)", "details": "protein RPL12; soluble abundance after heat, U3A cells"}}, "data": [{"smiles": "CCc1nc(N)nc(N)c1-c1ccc(Cl)cc1", "note": "[pyrimethamine]", "values": [{"measurement": "Log2 (PYR/DMSO)", "setting": "[1]", "value": 0.18}, {"measurement": "Log2 (PYR/DMSO)", "setting": "[2]", "value": 0.19}, {"measurement": "Log2 (PYR/DMSO)", "setting": "[3]", "value": 0.18}, {"measurement": "Log2 (PYR/DMSO)", "setting": "[4]", "value": -0.03}, {"measurement": "Log2 (PYR/DMSO)", "setting": "[5]", "value": 0.19}, {"measurement": "Log2 (PYR/DMSO)", "setting": "[6]", "value": 0.18}, {"measurement": "Log2 (PYR/DMSO)", "setting": "[7]", "value": 0.15}, {"measurement": "Log2 (PYR/DMSO), CHKA", "setting": "[8]", "value": 0.24}, {"measurement": "Log2 (PYR/DMSO)", "setting": "[9]", "value": -0.03}, {"measurement": "Log2 (PYR/DMSO)", "setting": "[10]", "value": 0.13}, {"measurement": "Log2 (PYR/DMSO), ASMTL", "setting": "[11]", "value": 0.27}, {"measurement": "Log2 (PYR/DMSO)", "setting": "[12]", "value": 0.16}, {"measurement": "Log2 (PYR/DMSO), ACBD3", "setting": "[13]", "value": 0.24}, {"measurement": "Log2 (PYR/DMSO)", "setting": "[14]", "value": -0.05}, {"measurement": "Log2 (PYR/DMSO)", "setting": "[15]", "value": 0.16}, {"measurement": "Log2 (PYR/DMSO)", "setting": "[16]", "value": 0.16}, {"measurement": "Log2 (PYR/DMSO)", "setting": "[17]", "value": -0.04}, {"measurement": "Log2 (PYR/DMSO), MRPS2", "setting": "[18]", "value": 0.25}, {"measurement": "Log2 (PYR/DMSO), GOLM1", "setting": "[19]", "value": -0.22}, {"measurement": "Log2 (PYR/DMSO)", "setting": "[20]", "value": 0.14}, {"measurement": "Log2 (PYR/DMSO)", "setting": "[21]", "value": -0.04}, {"measurement": "Log2 (PYR/DMSO)", "setting": "[22]", "value": 0.17}, {"measurement": "Log2 (PYR/DMSO)", "setting": "[23]", "value": 0.21}, {"measurement": "Log2 (PYR/DMSO)", "setting": "[24]", "value": 0.16}, {"measurement": "Log2 (PYR/DMSO)", "setting": "[25]", "value": 0.15}, {"measurement": "Log2 (PYR/DMSO)", "setting": "[26]", "value": 0.19}, {"measurement": "Log2 (PYR/DMSO)", "setting": "[27]", "value": 0.15}, {"measurement": "Log2 (PYR/DMSO), EIF5A2", "setting": "[28]", "value": -0.18}, {"measurement": "Log2 (PYR/DMSO)", "setting": "[29]", "value": -0.04}, {"measurement": "Log2 (PYR/DMSO)", "setting": "[30]", "value": 0.14}]}]}
